Common to all, as to format: cell-based
The target in assay [1] is T1, hGIPR (Homo sapiens, UniProt P48546).
T1 sequence (P48546 22-466): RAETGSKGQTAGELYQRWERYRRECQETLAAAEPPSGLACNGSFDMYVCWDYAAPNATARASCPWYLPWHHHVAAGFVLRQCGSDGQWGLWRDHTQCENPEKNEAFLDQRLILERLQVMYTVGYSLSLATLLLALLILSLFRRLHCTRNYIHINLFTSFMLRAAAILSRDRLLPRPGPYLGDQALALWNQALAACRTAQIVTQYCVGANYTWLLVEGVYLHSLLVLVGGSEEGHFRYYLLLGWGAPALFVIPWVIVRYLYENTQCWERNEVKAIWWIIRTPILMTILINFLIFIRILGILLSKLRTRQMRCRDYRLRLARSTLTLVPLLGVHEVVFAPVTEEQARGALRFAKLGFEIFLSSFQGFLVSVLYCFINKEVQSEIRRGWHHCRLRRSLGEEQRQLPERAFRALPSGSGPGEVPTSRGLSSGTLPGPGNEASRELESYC
Description: Functional cAMP activation in the presence of 0.1% casein (no HSA).

In assay [2] the target is T1, hGIPR. Description: Functional cAMP activity in the presence of 1% HSA.
The target in a further assay is human GcgR (Homo sapiens, UniProt P47871). Description: Functional cAMP activity in the presence of 1% HSA.
Assay [3] addresses T2, hGLP-1R (Homo sapiens, UniProt P43220). Description: Functional cAMP activity in the presence of 1% HSA.
In assay [4] the target is T2, hGLP-1R. Description: Functional cAMP activation in the presence of 0.1% casein (no HSA).
The next assay addresses hGcgR (Homo sapiens, UniProt P47871). The assay is described as above.
For another assay, the target named is human GLP1-R (Homo sapiens, UniProt P43220). Description: GLP1-R internalization assay in HEK293 cells. To be noted: for Internalization % TOP: normalized to maximum concentration of GLP-1 (100%).
Setting [5] is: in the presence of 0.1% casein (no HSA), geometric mean, read-out: Relative cAMP EC50, hGIPR.
Setting [6] is: read-out: cAMP Rel EC50, hGLP-1R.
[7] abbreviates: in the presence of 0.1% casein (no HSA), geometric mean, read-out: Relative cAMP EC50, hGLP-1R.
[8] abbreviates: in the presence of 0.1% casein (no HSA), geometric mean, read-out: Relative cAMP EC50, hGcgR.
[9] abbreviates: HEK293 cells expressing SNAP-GLP-1R, read-out: GLP1R Internalization EC50.

Read-outs that look alike come from different tables or passages of the source. Starred links: 1 amine or outer side, 2 acyl side, 3 side chain; linkers in the order of their positions; H or OH if unused. Non-standard residues stand in square brackets, D forms with d. Groups on a side chain read outwards from the residue. *: point of attachment. C20 diacid = O=C(O)CCCCCCCCCCCCCCCCCCC(=O)*; C18 diacid = O=C(O)CCCCCCCCCCCCCCCCC(=O)*; γGlu = O=C(O)[C@H](CCC(=O)[*:2])N[*:1]; αMeL = CC(C)C[C@](C)(N)C(=O)O; AEEA = NCCOCCOCC(=O)O; Aib = CC(C)(N)C(=O)O
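Throughout, for Relative cAMP EC50, hGIPR: intracellular cAMP rise after 30 min at 37 °C read by HTRF against a standard curve, scaled between buffer alone (0%) and top control ligand concentration (100%), four-parameter fit.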
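Throughout, for Relative cAMP EC50, hGLP-1R: intracellular cAMP rise after 30 min at 37 °C read by HTRF, normalized between buffer only (0%) and maximal control ligand (100%), four-parameter variable-slope fit.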
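Throughout, for Relative cAMP EC50, hGcgR: intracellular cAMP rise after 30 min at 37 °C, read by HTRF against a cAMP standard curve, scaled from buffer only (0%) to maximal control ligand response (100%).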

T2 sequence (P43220 24-463): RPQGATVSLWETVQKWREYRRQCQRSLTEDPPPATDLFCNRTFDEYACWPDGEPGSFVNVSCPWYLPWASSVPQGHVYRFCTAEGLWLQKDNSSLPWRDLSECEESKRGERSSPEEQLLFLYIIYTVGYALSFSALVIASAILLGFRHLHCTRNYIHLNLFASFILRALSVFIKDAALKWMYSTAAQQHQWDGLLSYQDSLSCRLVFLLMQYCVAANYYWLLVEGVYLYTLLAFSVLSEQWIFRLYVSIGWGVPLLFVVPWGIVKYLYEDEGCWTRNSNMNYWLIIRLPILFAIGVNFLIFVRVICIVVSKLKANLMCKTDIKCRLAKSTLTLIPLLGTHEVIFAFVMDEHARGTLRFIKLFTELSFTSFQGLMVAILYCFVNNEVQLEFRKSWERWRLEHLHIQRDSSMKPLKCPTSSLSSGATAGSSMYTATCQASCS
Sequence of human GLP1-R (P43220 24-463): as above
Sequence of hGcgR (P47871 26-477): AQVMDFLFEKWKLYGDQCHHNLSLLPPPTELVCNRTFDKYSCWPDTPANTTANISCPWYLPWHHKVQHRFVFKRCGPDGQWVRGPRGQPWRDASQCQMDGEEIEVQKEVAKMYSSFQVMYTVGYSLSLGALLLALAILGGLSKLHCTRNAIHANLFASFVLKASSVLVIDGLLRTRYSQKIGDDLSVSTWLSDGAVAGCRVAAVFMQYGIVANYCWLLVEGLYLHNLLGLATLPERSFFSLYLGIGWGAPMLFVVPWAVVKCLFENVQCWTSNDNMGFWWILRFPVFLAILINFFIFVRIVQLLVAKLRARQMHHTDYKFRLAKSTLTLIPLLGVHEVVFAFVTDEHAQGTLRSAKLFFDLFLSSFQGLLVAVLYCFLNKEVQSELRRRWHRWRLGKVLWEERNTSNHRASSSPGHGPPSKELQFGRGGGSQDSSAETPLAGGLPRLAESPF
Sequence of human GcgR (P47871 26-477): as above

`CC[C@H](C)[C@H](NC(=O)[C@H](Cc1ccccc1)NC(=O)[C@H](C)NC(=O)[C@](C)(Cc1ccncc1)NC(=O)[C@H](CCC(N)=O)NC(=O)[C@H](C)NC(=O)[C@H](CCCCNC(=O)COCCOCCNC(=O)CC[C@H](NC(=O)CCCCCCCCCCCCCCCCC(=O)O)C(=O)O)NC(=O)[C@H](CCCCN)NC(=O)[C@H](CC(=O)O)NC(=O)[C@H](CC(C)C)NC(=O)[C@](C)(CC(C)C)NC(=O)[C@H](CCCNC(=N)N)NC(=O)[C@H](CO)NC(=O)[C@H](Cc1ccccc1)NC(=O)[C@H](CC(=O)O)NC(=O)[C@H](CO)NC(=O)[C@@H](NC(=O)[C@H](Cc1ccccc1)NC(=O)[C@@H](NC(=O)CNC(=O)[C@H](CCC(N)=O)NC(=O)C(C)(C)NC(=O)[C@@H](N)Cc1ccc(O)cc1)[C@@H](C)O)[C@@H](C)O)C(=O)N[C@@H](CCC(=O)O)C(=O)N[C@@H](Cc1ccc(O)cc1)C(=O)N[C@@H](CC(C)C)C(=O)N[C@H](C(=O)N[C@@H](CCC(=O)O)C(=O)NC(C)(C)C(=O)NCC(=O)N[C@@H](CCC(=O)O)C(=O)N[C@@H](CO)C(=O)N[C@@H](CO)C(=O)NCC(=O)N[C@@H](C)C(=O)N1CCC[C@H]1C(=O)N1CCC[C@H]1C(=O)N1CCC[C@H]1C(=O)N[C@@H](CO)C(=O)NCC(=O)N[C@@H](CO)C(N)=O)[C@@H](C)CC` [Example 230]: the concentration giving a half-maximal response (EC50) (commonly the concentration needed to bring the measured effect to its halfway point) is 0.0909 nM at hGIPR [1]; 21.6 nM on hGIPR [2]; 388 nM on human GcgR; 199 nM at hGLP-1R [3]; 0.937 nM on hGLP-1R [4]; 1.61 nM at hGcgR. At human GLP1-R, this compound displayed an EC50 of 34.4 nM. For the same compound, the “Internalization % TOP” value on human GLP1-R is given as 31.2%.

Take “H-Y[Aib]QGTFTSDFSK[αMeL]LDKK([AEEA-AEEA-γGlu-C20 diacid])AQ[Aib]AFIEYLLEGGPSSGAPPPGEG-NH2 [Example 17]”: the EC50 amounted to 0.317 nM on hGIPR [1] (setting [5]); 91.7 nM at hGIPR [2] (read-out: cAMP Rel EC50, hGIPR); 2040 nM at human GcgR (read-out: cAMP Rel EC50, hGcgR); 543 nM on hGLP-1R [3] (setting [6]); 2.96 nM at hGLP-1R [4] (setting [7]); 8.33 nM on hGcgR (setting [8]). In addition, at human GLP1-R (setting [9]), the EC50 was determined as 66.2 nM. Further, on human GLP1-R, the “Internalization % TOP” value amounted to 72.2%.

For the compound “H-Y[Aib]QGTFTSDFSK[αMeL]LDKK([AEEA-γGlu-C18 diacid])AQ[Aib]AFIEYLIEGGPSSGAPPPSEG-NH2 [Example 49]”, the EC50 is 0.324 nM on hGIPR [1] (setting [5]); 44.9 nM on hGIPR [2] (read-out: cAMP Rel EC50, hGIPR); 1310 nM on human GcgR (read-out: cAMP Rel EC50, hGcgR); 151 nM at hGLP-1R [3] (setting [6]); 0.706 nM on hGLP-1R [4] (setting [7]); 5.54 nM at hGcgR (setting [8]). Further, the EC50 at human GLP1-R (setting [9]) was found to be 37.2 nM. For the same compound, the “Internalization % TOP” value at human GLP1-R was 53.2%.

With “H-Y[Aib]QGTFTSDFSK[αMeL]LDKK([AEEA-γGlu-C18 diacid])AQ[Aib]AFIEYLIE[Aib]GESSGAPPPSGE-NH2 [Example 217]”, the EC50 on hGIPR [1] (setting [5]) came out at 0.0897 nM; on hGIPR [2] (read-out: cAMP Rel EC50, hGIPR) it was 15 nM; at human GcgR (read-out: cAMP Rel EC50, hGcgR) it was 1570 nM; at hGLP-1R [3] (setting [6]) it was 130 nM; at hGLP-1R [4] (setting [7]) it was 0.667 nM; on hGcgR (setting [8]) it was 5.11 nM. Also, the EC50 at human GLP1-R (setting [9]) was 27.6 nM. Further, the “Internalization % TOP” value at human GLP1-R stood at 58.2%.

As for “H-Y[Aib]QGTFTSDFSK[αMeL]LDKK([AEEA-γGlu-C18 diacid])AQ[Aib]AFIEYLLEGGPSSGAPPPSGS-NH2 [Example 141]”, the EC50 is 0.21 nM at hGIPR [1] (setting [5]); 62.1 nM at hGIPR [2] (read-out: cAMP Rel EC50, hGIPR); 877 nM on human GcgR (read-out: cAMP Rel EC50, hGcgR); 562 nM at hGLP-1R [3] (setting [6]); 1.96 nM at hGLP-1R [4] (setting [7]); 1.77 nM on hGcgR (setting [8]). Besides, the EC50 at human GLP1-R (setting [9]) turned out to be 95.3 nM. For the same compound, at human GLP1-R, the “Internalization % TOP” value is given as 64.1%.

“H-Y[Aib]QGTFTSDFSK[αMeL]LDKK([AEEA-γGlu-C18 diacid])AQ[Aib]AFIEYLLE[Aib]GPSSGAPPPSEG-NH2 [Example 57]”: the EC50 stood at 0.098 nM on hGIPR [1] (setting [5]); 3.78 nM at hGIPR [2] (read-out: cAMP Rel EC50, hGIPR); 113 nM at human GcgR (read-out: cAMP Rel EC50, hGcgR); 42.7 nM on hGLP-1R [3] (setting [6]); 3.06 nM on hGLP-1R [4] (setting [7]); 4.37 nM at hGcgR (setting [8]). Further, the EC50 on human GLP1-R (setting [9]) was 76.6 nM. The “Internalization % TOP” value on human GLP1-R is 73.1%.

For “H-Y[Aib]QGTFTSDFSK[αMeL]LDKK([AEEA-γGlu-C18 diacid])AQ[Aib]AFIEYLLE[Aib]GPSSGEPPPSEG-NH2 [Example 46]”, the EC50 on hGIPR [1] (setting [5]) is 0.0947 nM; at hGIPR [2] (read-out: cAMP Rel EC50, hGIPR) it was 19.6 nM; on human GcgR (read-out: cAMP Rel EC50, hGcgR), 393 nM; on hGLP-1R [3] (setting [6]) it was 601 nM; at hGLP-1R [4] (setting [7]), 4.04 nM; on hGcgR (setting [8]), 1.53 nM. Also, the EC50 at human GLP1-R (setting [9]) stood at 41 nM. Also, the “Internalization % TOP” value on human GLP1-R is listed as 58.1%.

As for “H-Y[Aib]QGTFTSDFSK[αMeL]LDKK([AEEA-γGlu-C18 diacid])AQ[Aib]QFIEYLLEGGPSSGAPPPSEG-NH2 [Example 51]”, the EC50 was determined as 0.421 nM at hGIPR [1] (setting [5]); 98.4 nM at hGIPR [2] (read-out: cAMP Rel EC50, hGIPR); 856 nM at human GcgR (read-out: cAMP Rel EC50, hGcgR); 1210 nM on hGLP-1R [3] (setting [6]); 5.8 nM at hGLP-1R [4] (setting [7]); 5.15 nM at hGcgR (setting [8]). Further, the EC50 at human GLP1-R (setting [9]) was 89.2 nM. For the same compound, at human GLP1-R, the “Internalization % TOP” value amounted to 55.7%.

The record behind these values is patent publication US20240270821A1, “GIP/GLP1/GCG TRI-RECEPTOR AGONISTS AND USES THEREOF” (priority 2023, published 2024).
